Assay results taken from the NIST ThermoML archive (doi:10.1021/je4009238).
Numbers after ± are expanded uncertainties.

Key:
[1] = xn = mol fraction of the nth substance listed; conditions: 101 kPa, Liquid
[2] = refractive index (Na D-line) (dimensionless); xn = mol fraction of the nth substance listed; conditions: 101 kPa, Liquid

CCCCn1cc[n+](C)c1.[Cl-] [1-butyl-3-methylimidazolium chloride] + CN(C)C=O
Conditions	mass density, [1] [kg/m3]	refractive index, [2]	viscosity, [1] [mPa·s]
288.15 K, x1 = 0.0086	957.7 ± 0.81	1.43562 ± 0.00063	1.064 ± 0.11
288.15 K, x1 = 0.0172	961.03 ± 0.79	1.43757 ± 0.00063	1.13 ± 0.12
288.15 K, x1 = 0.026	964.09 ± 0.77	1.4401 ± 0.00063	1.234 ± 0.12
288.15 K, x1 = 0.0351	967.36 ± 0.75	1.44223 ± 0.00063	1.358 ± 0.13
288.15 K, x1 = 0.0443	970.51 ± 0.74	1.44442 ± 0.00063	1.441 ± 0.13
288.15 K, x1 = 0.0541	973.65 ± 0.72	1.4466 ± 0.00063	1.571 ± 0.14
288.15 K, x1 = 0.0638	976.87 ± 0.7	1.44861 ± 0.00063	1.678 ± 0.15
288.15 K, x1 = 0.0738	979.65 ± 0.68	1.45083 ± 0.00063	1.865 ± 0.16
288.15 K, x1 = 0.0841	982.76 ± 0.66	1.45282 ± 0.00063	2.004 ± 0.17
288.15 K, x1 = 0.0947	985.77 ± 0.65	1.45492 ± 0.00063	2.24 ± 0.18
288.15 K, x1 = 0.1056	988.72 ± 0.63	1.45766 ± 0.00063	2.397 ± 0.19
288.15 K, x1 = 0.1167	991.56 ± 0.61	1.45909 ± 0.00063	2.589 ± 0.2
288.15 K, x1 = 0.1282	994.51 ± 0.6	1.46111 ± 0.00063	2.95 ± 0.22
288.15 K, x1 = 0.1399	997.33 ± 0.58	1.46315 ± 0.00063	3.196 ± 0.24
288.15 K, x1 = 0.152	1000.15 ± 0.57	1.46516 ± 0.00063	3.685 ± 0.27
298.15 K, x1 = 0.0086	948.35 ± 0.87	1.43088 ± 0.00063	0.9285 ± 0.11
298.15 K, x1 = 0.0172	951.98 ± 0.85	1.43313 ± 0.00063	0.9836 ± 0.11
298.15 K, x1 = 0.026	954.91 ± 0.83	1.43537 ± 0.00063	1.069 ± 0.12
298.15 K, x1 = 0.0351	958.49 ± 0.81	1.43761 ± 0.00063	1.173 ± 0.12
298.15 K, x1 = 0.0443	961.51 ± 0.79	1.4398 ± 0.00063	1.234 ± 0.12
298.15 K, x1 = 0.0541	964.75 ± 0.77	1.44206 ± 0.00063	1.343 ± 0.13
298.15 K, x1 = 0.0638	968.06 ± 0.75	1.44422 ± 0.00063	1.444 ± 0.14
298.15 K, x1 = 0.0738	970.86 ± 0.74	1.44638 ± 0.00063	1.59 ± 0.14
298.15 K, x1 = 0.0841	974.08 ± 0.72	1.44852 ± 0.00063	1.679 ± 0.15
298.15 K, x1 = 0.0947	977.24 ± 0.7	1.45063 ± 0.00063	1.8 ± 0.16
298.15 K, x1 = 0.1056	980.16 ± 0.68	1.45271 ± 0.00063	1.978 ± 0.17
298.15 K, x1 = 0.1167	983.01 ± 0.67	1.45475 ± 0.00063	2.126 ± 0.17
298.15 K, x1 = 0.1282	986.1 ± 0.65	1.45676 ± 0.00063	2.379 ± 0.19
298.15 K, x1 = 0.1399	988.96 ± 0.63	1.45871 ± 0.00063	2.582 ± 0.2
298.15 K, x1 = 0.152	991.87 ± 0.61	1.46064 ± 0.00063	2.907 ± 0.22
308.15 K, x1 = 0.0086	938.9 ± 0.93	1.42611 ± 0.00063	0.8223 ± 0.1
308.15 K, x1 = 0.0172	942.61 ± 0.91	1.42836 ± 0.00063	0.8668 ± 0.11
308.15 K, x1 = 0.026	945.63 ± 0.89	1.4306 ± 0.00063	0.9394 ± 0.11
308.15 K, x1 = 0.0351	949.34 ± 0.87	1.43285 ± 0.00063	1.022 ± 0.11
308.15 K, x1 = 0.0443	952.42 ± 0.85	1.43505 ± 0.00063	1.097 ± 0.12
308.15 K, x1 = 0.0541	955.77 ± 0.83	1.43731 ± 0.00063	1.166 ± 0.12
308.15 K, x1 = 0.0638	959.15 ± 0.81	1.43948 ± 0.00063	1.239 ± 0.12
308.15 K, x1 = 0.0738	962.05 ± 0.79	1.44163 ± 0.00063	1.362 ± 0.13
308.15 K, x1 = 0.0841	965.29 ± 0.77	1.44378 ± 0.00063	1.432 ± 0.13
308.15 K, x1 = 0.0947	968.56 ± 0.75	1.4459 ± 0.00063	1.524 ± 0.14
308.15 K, x1 = 0.1056	971.53 ± 0.73	1.44799 ± 0.00063	1.665 ± 0.15
308.15 K, x1 = 0.1167	974.49 ± 0.72	1.45003 ± 0.00063	1.782 ± 0.15
308.15 K, x1 = 0.1282	977.64 ± 0.7	1.45205 ± 0.00063	1.963 ± 0.17
308.15 K, x1 = 0.1399	980.61 ± 0.68	1.45401 ± 0.00063	2.135 ± 0.18
308.15 K, x1 = 0.152	983.6 ± 0.67	1.45595 ± 0.00063	2.351 ± 0.19
318.15 K, x1 = 0.0086	929.42 ± 0.99	1.42147 ± 0.00063	0.7351 ± 0.098
318.15 K, x1 = 0.0172	933.2 ± 0.96	1.42379 ± 0.00063	0.772 ± 0.1
318.15 K, x1 = 0.026	936.41 ± 0.94	1.42611 ± 0.00063	0.8352 ± 0.1
318.15 K, x1 = 0.0351	940.14 ± 0.92	1.42842 ± 0.00063	0.8995 ± 0.11
318.15 K, x1 = 0.0443	943.38 ± 0.9	1.43069 ± 0.00063	0.9641 ± 0.11
318.15 K, x1 = 0.0541	946.75 ± 0.88	1.43303 ± 0.00063	1.026 ± 0.11
318.15 K, x1 = 0.0638	950.28 ± 0.86	1.43526 ± 0.00063	1.078 ± 0.12
318.15 K, x1 = 0.0738	953.24 ± 0.84	1.43748 ± 0.00063	1.175 ± 0.12
318.15 K, x1 = 0.0841	956.58 ± 0.82	1.4397 ± 0.00063	1.241 ± 0.12
318.15 K, x1 = 0.0947	959.89 ± 0.8	1.44188 ± 0.00063	1.311 ± 0.13
318.15 K, x1 = 0.1056	962.99 ± 0.79	1.44402 ± 0.00063	1.424 ± 0.13
318.15 K, x1 = 0.1167	966.03 ± 0.77	1.44612 ± 0.00063	1.518 ± 0.14
318.15 K, x1 = 0.1282	969.28 ± 0.75	1.4482 ± 0.00063	1.651 ± 0.15
318.15 K, x1 = 0.1399	972.26 ± 0.73	1.45021 ± 0.00063	1.796 ± 0.16
318.15 K, x1 = 0.152	975.4 ± 0.72	1.45219 ± 0.00063	1.944 ± 0.16
